US4443436A, “C-20-Modified macrolide derivatives of the macrolide antibiotics tylosin, desmycosin, macrocin, and lactenocin” (Eli Lilly and Company, priority 1982, dated 1984)
≈ marks a conversion by molar mass, not a printed value.

Legend:
[1] = system: Mycoplasma hyopneumoniae; assay: MIC, broth-dilution microtiter test, Mycoplasma hyopneumoniae; format: cell-based; details: Mycoplasma hyopneumoniae; broth-dilution microtiter
From the text: (§1) The MIC's in Table X were obtained using conventional broth-dilution microtiter tests.

[2] = system: Pasteurella hemolytica 22C; assay: MIC, broth-dilution microtiter test, Pasteurella hemolytica 22C; format: cell-based; details: Pasteurella hemolytica 22C; broth-dilution microtiter
From the text: as §1

[3] = system: Pasteurella multocida 60A; assay: MIC, broth-dilution microtiter test, Pasteurella multocida 60A; format: cell-based; details: Pasteurella multocida 60A; avian isolate; broth-dilution microtiter
From the text: as §1

[4] = system: Staphylococcus aureus X400; assay: MIC, standard agar-dilution assay, Staphylococcus aureus X400; format: cell-based; details: Staphylococcus aureus X400; methicillin-resistant strain; agar dilution
[5] = system: Streptococcus Group D X66; assay: MIC, standard agar-dilution assay, Streptococcus Group D X66; format: cell-based; details: Streptococcus Group D X66; agar dilution
[6] = system: Pasteurella multocida 17E; assay: MIC, broth-dilution microtiter test, Pasteurella multocida 17E; format: cell-based; details: Pasteurella multocida 17E; bovine isolate; broth-dilution microtiter
From the text: as §1

[7] = system: Haemophilus influenzae R252; assay: MIC, standard agar-dilution assay, Haemophilus influenzae R252; format: cell-based; details: Haemophilus influenzae R252; ampicillin-resistant strain; agar dilution
[8] = system: Staphylococcus aureus S13E; assay: MIC, standard agar-dilution assay, Staphylococcus aureus S13E; format: cell-based; details: Staphylococcus aureus S13E; agar dilution
[9] = system: Mycoplasma synoviae; assay: MIC, broth-dilution microtiter test, Mycoplasma synoviae; format: cell-based; details: Mycoplasma synoviae; broth-dilution microtiter
From the text: as §1

[10] = system: Staphylococcus aureus V41; assay: MIC, standard agar-dilution assay, Staphylococcus aureus V41; format: cell-based; details: Staphylococcus aureus V41; penicillin-resistant strain; agar dilution
[11] = system: Streptococcus bovis 80; assay: MIC, broth-dilution microtiter test, Streptococcus bovis 80; format: cell-based; details: Streptococcus bovis 80; broth-dilution microtiter
From the text: as §1

[12] = system: Haemophilus influenzae Holt; assay: MIC, standard agar-dilution assay, Haemophilus influenzae Holt; format: cell-based; details: Haemophilus influenzae Holt; ampicillin-sensitive strain; agar dilution
[13] = system: Mycoplasma hyorhinis; assay: MIC, broth-dilution microtiter test, Mycoplasma hyorhinis; format: cell-based; details: Mycoplasma hyorhinis; broth-dilution microtiter
From the text: as §1

[14] = system: Staphylococcus aureus; assay: MIC, broth-dilution microtiter test, Staphylococcus aureus; format: cell-based; details: broth-dilution microtiter
From the text: as §1

[15] = system: Staphylococcus epidermidis EPI2; assay: MIC, standard agar-dilution assay, Staphylococcus epidermidis EPI2; format: cell-based; details: Staphylococcus epidermidis EPI2; agar dilution
[16] = system: Streptococcus pneumoniae Park I; assay: microbe, parasite or virus in culture; format: cell-based; details: Streptococcus pneumoniae Park I; agar dilution
[17] = system: Streptococcus Group 9960; assay: MIC, standard agar-dilution assay, Streptococcus Group 9960; format: cell-based; details: Streptococcus Group 9960; agar dilution
[18] = system: Streptococcus pyogenes C203; assay: In vivo protection of mice experimentally infected with S. pyogenes C203; details: mice, doses given 1 and 4 hours post-infection
Experimental: The C-20 modified derivatives of this invention have shown in vivo antimicrobial activity against experimentally-induced infections in laboratory animals. When two doses of test compound were administered to mice experimentally infected with S. pyogenes C203, the activity observed was measured as an ED50 value [effective dose in mg/kg to protect 50% of the test animals: see Warren Wick, et al., J. Bacteriol. 81, 233-235 (1961)].

[19] = system: Staphylococcus aureus X1.1; assay: MIC, standard agar-dilution assay, Staphylococcus aureus X1.1; format: cell-based; details: Staphylococcus aureus X1.1; agar dilution
[20] = system: Mycoplasma gallisepticum; assay: MIC, broth-dilution microtiter test, Mycoplasma gallisepticum; format: cell-based; details: Mycoplasma gallisepticum; broth-dilution microtiter
From the text: as §1

[21] = system: Streptococcus pyogenes C203; assay: MIC, standard agar-dilution assay, Streptococcus pyogenes C203; format: cell-based; details: Streptococcus pyogenes C203; agar dilution
[22] = system: Staphylococcus epidermidis EPI1; assay: MIC, standard agar-dilution assay, Staphylococcus epidermidis EPI1; format: cell-based; details: Staphylococcus epidermidis EPI1; agar dilution

CCC1OC(=O)CC(O)C(C)C(OC2OC(C)C(O)C(N(C)C)C2OC(C)=O)C(CCOc2ccccc2)CC(C)C(=O)C=CC(C)=CC1COC1OC(C)C(O)C(OC)C1OC (stereo not shown) [Compound 67, 20-DH-20-O-Phenyl-2'-O-acetyldesmycosin]
MIC [1]: 12.5 µg/mL (≈ 14 µM)
MIC [2]: 25 µg/mL (≈ 28 µM)
MIC [3]: 25 µg/mL (≈ 28 µM)
MIC [4]: 0.5 µg/mL (≈ 0.56 µM)
MIC [5]: 4 µg/mL (≈ 4.48 µM)
MIC [6]: 25 µg/mL (≈ 28 µM)
MIC [7]: 16 µg/mL (≈ 17.9 µM)
MIC [8]: 0.25 µg/mL (≈ 0.28 µM)
MIC [9]: 3.12 µg/mL (≈ 3.5 µM)
MIC [10]: 0.25 µg/mL (≈ 0.28 µM)
MIC [11]: 12.5 µg/mL (≈ 14 µM)
MIC [12]: 32 µg/mL (≈ 35.9 µM)
MIC [13]: 50 µg/mL (≈ 56 µM)
MIC [14]: 0.78 µg/mL (≈ 0.874 µM)
MIC [15]: 0.12 µg/mL (≈ 0.135 µM)
MIC [16]: 0.25 µg/mL (≈ 0.28 µM)
MIC [17]: 8 µg/mL (≈ 8.97 µM)
ED50, Oral [18]: 9 mg/kg × 2
ED50, Subcutaneous [18]: 1.0 mg/kg × 2
MIC [19]: 0.25 µg/mL (≈ 0.28 µM)
MIC [20]: 0.39 µg/mL (≈ 0.437 µM)
MIC [21]: 1 µg/mL (≈ 1.12 µM)
MIC [22]: 0.25 µg/mL (≈ 0.28 µM)

CCC1OC(=O)CC(O)C(C)C(OC2OC(C)C(O)C(N(C)C)C2O)C(CCOc2ccccc2)CC(C)C(=O)C=CC(C)=CC1COC1OC(C)C(O)C(O)C1OC (stereo not shown) [Compound 58, 20-DH-20-O-Phenyllactenocin]
MIC [1]: 6.25 µg/mL (≈ 7.48 µM)
MIC [2]: 25 µg/mL (≈ 29.9 µM)
MIC [3]: 12.5 µg/mL (≈ 15 µM)
MIC [4]: 0.25 µg/mL (≈ 0.299 µM)
MIC [5]: 4 µg/mL (≈ 4.78 µM)
MIC [6]: 25 µg/mL (≈ 29.9 µM)
MIC [7]: 16 µg/mL (≈ 19.1 µM)
MIC [8]: 0.25 µg/mL (≈ 0.299 µM)
MIC [9]: 6.25 µg/mL (≈ 7.48 µM)
MIC [10]: 0.25 µg/mL (≈ 0.299 µM)
MIC [11]: 1.56 µg/mL (≈ 1.87 µM)
MIC [12]: 32 µg/mL (≈ 38.3 µM)
MIC [13]: 50 µg/mL (≈ 59.8 µM)
MIC [14]: 0.39 µg/mL (≈ 0.466 µM)
MIC [15]: 0.25 µg/mL (≈ 0.299 µM)
MIC [16]: 0.25 µg/mL (≈ 0.299 µM)
MIC [17]: 8 µg/mL (≈ 9.57 µM)
ED50, Oral [18]: 50 mg/kg × 2
ED50, Subcutaneous [18]: 3.2 mg/kg × 2
MIC [19]: 0.25 µg/mL (≈ 0.299 µM)
MIC [20]: 0.78 µg/mL (≈ 0.933 µM)
MIC [21]: 0.06 µg/mL (≈ 0.0718 µM)
MIC [22]: 0.25 µg/mL (≈ 0.299 µM)

CCC1OC(=O)CC(O)C(C)C(OC2OC(C)C(O)C(N(C)C)C2O)C(CCOc2cccc(Oc3ccccc3)c2)CC(C)C(=O)C=CC(C)=CC1COC1OC(C)C(O)C(OC)C1OC (stereo not shown) [Compound 48, 20-DH-20-O-(m-Phenoxyphenyl)desmycosin]
MIC [1]: 1.56 µg/mL (≈ 1.66 µM)
MIC [2]: 25 µg/mL (≈ 26.5 µM)
MIC [3]: 25 µg/mL (≈ 26.5 µM)
MIC [4]: 0.5 µg/mL (≈ 0.531 µM)
MIC [5]: 0.5 µg/mL (≈ 0.531 µM)
MIC [6]: 25 µg/mL (≈ 26.5 µM)
MIC [7]: 16 µg/mL (≈ 17 µM)
MIC [8]: 0.5 µg/mL (≈ 0.531 µM)
MIC [9]: 0.19 µg/mL (≈ 0.202 µM)
MIC [10]: 0.5 µg/mL (≈ 0.531 µM)
MIC [11]: 0.09 µg/mL (≈ 0.0955 µM)
MIC [12]: 16 µg/mL (≈ 17 µM)
MIC [13]: 12.5 µg/mL (≈ 13.3 µM)
MIC [14]: 0.78 µg/mL (≈ 0.828 µM)
MIC [15]: 0.25 µg/mL (≈ 0.265 µM)
MIC [16]: 0.25 µg/mL (≈ 0.265 µM)
MIC [17]: 1 µg/mL (≈ 1.06 µM)
ED50, Oral [18]: 35 mg/kg × 2
ED50, Subcutaneous [18]: > 10 mg/kg × 2
MIC [19]: 0.5 µg/mL (≈ 0.531 µM)
MIC [20]: < 0.05 µg/mL
MIC [21]: 0.25 µg/mL (≈ 0.265 µM)
MIC [22]: 0.5 µg/mL (≈ 0.531 µM)

CCC1OC(=O)CC(O)C(C)C(OC2OC(C)C(OC(C)=O)C(N(C)C)C2OC(C)=O)C(CCOc2ccccc2)CC(C)C(=O)C=CC(C)=CC1COC1OC(C)C(O)C(OC)C1OC (stereo not shown) [Compound 68, 20-DH-20-O-Phenyl-2',4'-di-O-acetyldesmycosin]
MIC [1]: 12.5 µg/mL (≈ 13.4 µM)
MIC [2]: 25 µg/mL (≈ 26.8 µM)
MIC [3]: 25 µg/mL (≈ 26.8 µM)
MIC [4]: 0.5 µg/mL (≈ 0.535 µM)
MIC [5]: 4 µg/mL (≈ 4.28 µM)
MIC [6]: 25 µg/mL (≈ 26.8 µM)
MIC [7]: 16 µg/mL (≈ 17.1 µM)
MIC [8]: 0.5 µg/mL (≈ 0.535 µM)
MIC [9]: 3.12 µg/mL (≈ 3.34 µM)
MIC [10]: 0.5 µg/mL (≈ 0.535 µM)
MIC [11]: 6.25 µg/mL (≈ 6.69 µM)
MIC [12]: 32 µg/mL (≈ 34.3 µM)
MIC [13]: -- (Not active at 50 mcg/ml, the highest level tested)
MIC [14]: 0.39 µg/mL (≈ 0.418 µM)
MIC [15]: 0.12 µg/mL (≈ 0.128 µM)
MIC [16]: 0.5 µg/mL (≈ 0.535 µM)
MIC [17]: 8 µg/mL (≈ 8.56 µM)
ED50, Oral [18]: 16 mg/kg × 2
ED50, Subcutaneous [18]: 2.9 mg/kg × 2
MIC [19]: 0.5 µg/mL (≈ 0.535 µM)
MIC [20]: 0.39 µg/mL (≈ 0.418 µM)
MIC [21]: 0.5 µg/mL (≈ 0.535 µM)
MIC [22]: 0.5 µg/mL (≈ 0.535 µM)

CCC1OC(=O)CC(O)C(C)C(OC2OC(C)C(O)C(N(C)C)C2O)C(CCOc2ccc(Oc3ccccc3)cc2)CC(C)C(=O)C=CC(C)=CC1COC1OC(C)C(O)C(OC)C1OC (stereo not shown) [Compound 47, 20-DH-20-O-(p-Phenoxyphenyl)desmycosin]
MIC [1]: 3.12 µg/mL (≈ 3.31 µM)
MIC [2]: 25 µg/mL (≈ 26.5 µM)
MIC [3]: 25 µg/mL (≈ 26.5 µM)
MIC [4]: 0.5 µg/mL (≈ 0.531 µM)
MIC [5]: 0.5 µg/mL (≈ 0.531 µM)
MIC [6]: 25 µg/mL (≈ 26.5 µM)
MIC [7]: 16 µg/mL (≈ 17 µM)
MIC [8]: 0.25 µg/mL (≈ 0.265 µM)
MIC [9]: 0.09 µg/mL (≈ 0.0955 µM)
MIC [10]: 0.5 µg/mL (≈ 0.531 µM)
MIC [11]: 0.09 µg/mL (≈ 0.0955 µM)
MIC [12]: 16 µg/mL (≈ 17 µM)
MIC [13]: 6.25 µg/mL (≈ 6.63 µM)
MIC [14]: 0.78 µg/mL (≈ 0.828 µM)
MIC [15]: 0.25 µg/mL (≈ 0.265 µM)
MIC [16]: 0.25 µg/mL (≈ 0.265 µM)
MIC [17]: 1 µg/mL (≈ 1.06 µM)
ED50, Oral [18]: 29 mg/kg × 2
ED50, Subcutaneous [18]: > 10 mg/kg × 2
MIC [19]: 0.5 µg/mL (≈ 0.531 µM)
MIC [20]: < 0.05 µg/mL
MIC [21]: 0.25 µg/mL (≈ 0.265 µM)
MIC [22]: 0.5 µg/mL (≈ 0.531 µM)
